Measurements taken from patent US6355799B1, “Substituted benzene compounds, process for their preparation, and herbicidal and defoliant compositions containing them” (ISK Americas Incorporated, priority 1997, dated 2002).

How the values were obtained:
Type in all cases: in vivo
[1] = system: field corn (Zea mays L., var. Dekalb 535, CORN); experiment: Post-emerge test, crop safety; conditions: post-emerge, 14 days after application, rating scale 0-100
Procedure, shortened: (§1)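 Plants grown in 10 cm pots of sandy loam mix received acetone-dissolved compounds through a moving flat-fan nozzle. Doses ranged from 15 to 1000 g ai/ha. Pre-emerge pots were seeded one day earlier, post-emerge pots 8–21 days earlier. Fourteen days on, each pot was graded 0–100 for damage.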

[2] = system: upland rice (Oryza sp., var. Tebonnet, RICE); experiment: Post-emerge test, crop safety; conditions: post-emerge, 14 days after application, rating scale 0-100
Procedure, shortened: as §1

[3] = system: velvetleaf (Abutilon theophrasti, ABUTH); experiment: Pre-emerge test, greenhouse herbicide activity screening; conditions: pre-emerge, 14 days after application, scale 0-100
Procedure, shortened: (§2)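 Rating: 0–100 visual injury, 14 DAA. Application: acetone, 187 l/ha, 15–1000 g ai/ha, flat-fan track sprayer with nozzle 40–45 cm above soil or canopy. Post-emerge runs used 0.25% v/v surfactant on 2–3 leaf plants.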

[4] = system: lambsquarters (Chenopodium album, CHEAL); experiment: as above; conditions: pre-emerge, 14 days after application, scale 0-100
Procedure, shortened: as §2

[5] = system: sicklepod (Cassia obtusifolia, CASOB); experiment: as above; conditions: pre-emerge, 14 days after application, scale 0-100
Procedure, shortened: as §2

[6] = system: large crabgrass (Digitaria sanguinalis, DIGSA); experiment: as above; conditions: pre-emerge, 14 days after application, scale 0-100
Procedure, shortened: as §2

[7] = system: ivyleaf morningglory (Ipomoea hederacea, IPOHE); experiment: as above; conditions: pre-emerge, 14 days after application, scale 0-100
Procedure, shortened: as §2

[8] = system: green foxtail (Setaria viridis, SETVI); experiment: as above; conditions: pre-emerge, 14 days after application, scale 0-100
Procedure, shortened: as §2

[9] = system: johnsongrass (Sorghum halepense, SORHA); experiment: as above; conditions: pre-emerge, 14 days after application, scale 0-100
Procedure, shortened: as §2

[10] = system: barnyardgrass (Echinochloa crus-galli, ECHCG); experiment: as above; conditions: pre-emerge, 14 days after application, scale 0-100
Procedure, shortened: as §2

[11] = system: field corn (Zea mays L., var. Dekalb 535, CORN); experiment: Pre-emerge test, crop safety; conditions: pre-emerge, 14 days after application, scale 0-100
Procedure, shortened: (§3)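 Applied at 15–1000 g ai/ha from acetone in 187 l/ha spray volume. Post-emergence applications included 0.25% v/v non-ionic surfactant and reached plants sown 8–21 days before. Pre-emergence applications were incorporated by surface watering. Efficacy or crop damage was rated on a 0–100 scale after 14 days.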

[12] = system: upland rice (Oryza sp., var. Tebonnet, RICE); experiment: Pre-emerge test, crop safety; conditions: pre-emerge, 14 days after application, scale 0-100
Procedure, shortened: as §3

[13] = system: redroot pigweed (Amaranthus retroflexus, AMARE); experiment: Pre-emerge test, greenhouse herbicide activity screening; conditions: pre-emerge, 14 days after application, scale 0-100
Procedure, shortened: (§4)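 Compounds in acetone were track-sprayed at 15-1000 g ai/ha (187 l/ha) on sandy loam pots: pre-emerge one day after seeding, post-emerge at 2-3 leaf stage with 0.25% v/v non-ionic surfactant. Phytotoxicity was rated 14 days later on a 0 (no damage) to 100 (complete death) scale.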

[14] = system: velvetleaf (Abutilon theophrasti, ABUTH); experiment: Post-emerge test, greenhouse herbicide activity screening; conditions: post-emerge, 14 days after application, rating scale 0-100
Procedure, shortened: as §4

[15] = system: redroot pigweed (Amaranthus retroflexus, AMARE); experiment: as above; conditions: post-emerge, 14 days after application, rating scale 0-100
Procedure, shortened: as §4

[16] = system: lambsquarters (Chenopodium album, CHEAL); experiment: as above; conditions: post-emerge, 14 days after application, rating scale 0-100
Procedure, shortened: as §4

[17] = system: sicklepod (Cassia obtusifolia, CASOB); experiment: as above; conditions: post-emerge, 14 days after application, rating scale 0-100
Procedure, shortened: as §4

[18] = system: large crabgrass (Digitaria sanguinalis, DIGSA); experiment: as above; conditions: post-emerge, 14 days after application, rating scale 0-100
Procedure, shortened: as §4

[19] = system: ivyleaf morningglory (Ipomoea hederacea, IPOHE); experiment: as above; conditions: post-emerge, 14 days after application, rating scale 0-100
Procedure, shortened: as §4

[20] = system: green foxtail (Setaria viridis, SETVI); experiment: as above; conditions: post-emerge, 14 days after application, rating scale 0-100
Procedure, shortened: as §4

[21] = system: johnsongrass (Sorghum halepense, SORHA); experiment: as above; conditions: post-emerge, 14 days after application, rating scale 0-100
Procedure, shortened: as §4

[22] = system: barnyardgrass (Echinochloa crus-galli, ECHCG); experiment: as above; conditions: post-emerge, 14 days after application, rating scale 0-100
Procedure, shortened: as §4

`COc1c(Cl)cc(F)c(-n2c(=O)cc(C(F)(F)F)n(C)c2=O)c1NC(=O)CSc1ccc2ccccc2c1` [2-169] was tested, and the “CORN phytotoxicity rating (crop damage)” value ([1]; 63 g ai/ha) was 10, the “CORN phytotoxicity rating (crop damage)” value ([1]; 250 g ai/ha) was 10 and the “RICE phytotoxicity rating (crop damage)” value ([2]; 63 g ai/ha) was 10. For the same compound, the “RICE phytotoxicity rating (crop damage)” value ([2]; 250 g ai/ha) was 10, the “phytotoxicity rating ABUTH” value ([3]; 63 g ai/ha) was 0 and the “phytotoxicity rating ABUTH” value ([3]; 250 g ai/ha) was 90. The “phytotoxicity rating CHEAL” value ([4]; 63 g ai/ha) was 65, the “phytotoxicity rating CHEAL” value ([4]; 250 g ai/ha) was 100 and the “phytotoxicity rating CASOB” value ([5]; 63 g ai/ha) was 20. The “phytotoxicity rating CASOB” value ([5]; 250 g ai/ha) was 30, the “phytotoxicity rating DIGSA” value ([6]; 63 g ai/ha) was 0 and the “phytotoxicity rating DIGSA” value ([6]; 250 g ai/ha) was 80. The “phytotoxicity rating IPOHE” value ([7]; 63 g ai/ha) was 10, the “phytotoxicity rating IPOHE” value ([7]; 250 g ai/ha) was 20 and the “phytotoxicity rating SETVI” value ([8]; 63 g ai/ha) was 0. For the same compound, the “phytotoxicity rating SETVI” value ([8]; 250 g ai/ha) was 30, the “phytotoxicity rating SORHA” value ([9]; 63 g ai/ha) was 0 and the “phytotoxicity rating SORHA” value ([9]; 250 g ai/ha) was 20. For the same compound, the “phytotoxicity rating ECHCG” value ([10]; 63 g ai/ha) was 0, the “phytotoxicity rating ECHCG” value ([10]; 250 g ai/ha) was 0 and the “phytotoxicity rating CORN (crop damage)” value ([11]; 63 g ai/ha) was 0. For the same compound, the “phytotoxicity rating CORN (crop damage)” value ([11]; 250 g ai/ha) was 0, the “phytotoxicity rating RICE (crop damage)” value ([12]; 63 g ai/ha) was 10 and the “phytotoxicity rating RICE (crop damage)” value ([12]; 250 g ai/ha) was 40. For the same compound, the “phytotoxicity rating AMARE” value ([13]; 63 g ai/ha) was 70, the “phytotoxicity rating AMARE” value ([13]; 250 g ai/ha) was 80 and the ABUTH phytotoxicity rating ([14]; 63 g ai/ha) was 70. For the same compound, the ABUTH phytotoxicity rating ([14]; 250 g ai/ha) was 80, the AMARE phytotoxicity rating ([15]; 63 g ai/ha) was 10 and the AMARE phytotoxicity rating ([15]; 250 g ai/ha) was 0. The CHEAL phytotoxicity rating ([16]; 63 g ai/ha) was 30, the CHEAL phytotoxicity rating ([16]; 250 g ai/ha) was 40 and the CASOB phytotoxicity rating ([17]; 63 g ai/ha) was 10. The CASOB phytotoxicity rating ([17]; 250 g ai/ha) was 10, the DIGSA phytotoxicity rating ([18]; 63 g ai/ha) was 0 and the DIGSA phytotoxicity rating ([18]; 250 g ai/ha) was 0. It also gave an IPOHE phytotoxicity rating ([19]; 63 g ai/ha) of 50, an IPOHE phytotoxicity rating ([19]; 250 g ai/ha) of 40 and an SETVI phytotoxicity rating ([20]; 63 g ai/ha) of 0. For the same compound, the SETVI phytotoxicity rating ([20]; 250 g ai/ha) was 0, the SORHA phytotoxicity rating ([21]; 63 g ai/ha) was 0 and the SORHA phytotoxicity rating ([21]; 250 g ai/ha) was 0. The ECHCG phytotoxicity rating ([22]; 63 g ai/ha) was 0 and the ECHCG phytotoxicity rating ([22]; 250 g ai/ha) was 0.
